Data on 17 compounds can be found in patent EP4656642A1, “ESTROGEN RECEPTOR PROTEOLYSIS TARGETING CHIMERA COMPOUND AND USE THEREOF” (GAN & LEE PHARM CO., LTD, priority 2023, dated 2024).

Common to all, as to format: cell-based
In one assay the test system is MCF-7 cells. The assay can be described thus: Inhibition of cell proliferation of MCF-7 cells (CCK-8, 6 days). The settings on record: 6 days of treatment, Table 4. An excerpt: Test Example 3 Inhibitory effect of the PROTAC compounds provided in the present disclosure on cell proliferation of MCF-7 cells
The complete medium required for MCF-7 cells (source ATCC) was DMEM (gibco, Product number :11995-065) basal medium containing 10% fetal bovine serum. MCF-7 cells were inoculated in 96-well plates at a density of 800 cells/well, and different concentrations of the PROTAC compounds 1-55 provided in the examples of the present disclosure and a positive control sample ARV-471 (source: Innochem) were prepared to treat the cells, and the cells were treated at 37°C in a cell culture incubator with 5% CO2 for 6 days. Cell viability was detected using a CCK-8 kit (Beyotime, Product number: C0040) according to the manufacturer's instructions. The IC50 values of each PROTAC compound after 6 days of treatment were calculated using GraphPadPrism software based on the inhibition rate, and the results are shown in Table 4. Table 4 IC50 values for inhibition of the proliferation of MCF-7 cells by the PROTAC compounds of the present disclosure and positive control sample

In a further assay the test system is T-47D cells. The assay can be described thus: Inhibition of cell proliferation in T-47D cells (CCK-8, 6 days). The settings on record: 6 days of treatment, Table 2. Summed up:
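Viability read-out was CCK-8 after 6 days of compound treatment (37 °C, 5% CO2) across graded concentrations. Cells were T-47D seeded at 3,000 per well in 1640 medium plus 10% FBS. IC50 was calculated against proliferation.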

The target in assay [1] is T1, ERα (Homo sapiens, UniProt P03372).
T1 sequence (P03372 1-595): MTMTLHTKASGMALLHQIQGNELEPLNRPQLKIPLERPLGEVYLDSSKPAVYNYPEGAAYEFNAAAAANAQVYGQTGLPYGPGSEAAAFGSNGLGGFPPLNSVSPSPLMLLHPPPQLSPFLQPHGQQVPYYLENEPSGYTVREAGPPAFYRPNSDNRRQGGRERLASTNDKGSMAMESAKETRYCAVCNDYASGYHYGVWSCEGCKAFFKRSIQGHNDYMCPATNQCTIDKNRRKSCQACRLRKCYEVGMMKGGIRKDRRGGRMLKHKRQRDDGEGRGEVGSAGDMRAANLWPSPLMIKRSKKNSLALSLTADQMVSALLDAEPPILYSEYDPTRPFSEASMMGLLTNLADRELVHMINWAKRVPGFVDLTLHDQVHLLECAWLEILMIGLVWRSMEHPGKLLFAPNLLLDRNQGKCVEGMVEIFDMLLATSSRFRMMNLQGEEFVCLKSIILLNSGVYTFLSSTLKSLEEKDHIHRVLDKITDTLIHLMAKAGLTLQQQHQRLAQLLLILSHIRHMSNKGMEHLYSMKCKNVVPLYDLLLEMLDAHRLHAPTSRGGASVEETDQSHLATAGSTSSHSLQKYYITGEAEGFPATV
The assay can be described thus: Degradation of ERα in T-47D cells (immunoblotting, 4 h). Also noted: host or cells: T-47D. In short, it runs like this:
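ERα protein levels were assessed by immunoblot of RIPA lysates (with protease inhibitor) after 4 h exposure at 37°C. Compound was added in DMSO to T-47D cells at final concentrations of 0.15-1000 nM.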
For orientation: Immunoblotting shows a protein as a band on a membrane.

Assay [2] concerns the target T1, ERα. The assay can be described thus: Degradation of ERα in MCF-7 cells (immunoblotting, 4 h). The settings on record: 10nM compound. Summed up: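 Degradation rate reflects ERα band intensity, corrected to an internal reference protein, relative to control. Values come from Western blotting of lysates from MCF-7 cells exposed 4 h at 37°C to compounds at final concentrations of 0.15-1000nM.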

In another assay the target is T2, AR protein (Homo sapiens, UniProt P10275, T878A).
T2 construct: host or cells: LNCaP FGC
T2 sequence (P10275 1-920 T878A): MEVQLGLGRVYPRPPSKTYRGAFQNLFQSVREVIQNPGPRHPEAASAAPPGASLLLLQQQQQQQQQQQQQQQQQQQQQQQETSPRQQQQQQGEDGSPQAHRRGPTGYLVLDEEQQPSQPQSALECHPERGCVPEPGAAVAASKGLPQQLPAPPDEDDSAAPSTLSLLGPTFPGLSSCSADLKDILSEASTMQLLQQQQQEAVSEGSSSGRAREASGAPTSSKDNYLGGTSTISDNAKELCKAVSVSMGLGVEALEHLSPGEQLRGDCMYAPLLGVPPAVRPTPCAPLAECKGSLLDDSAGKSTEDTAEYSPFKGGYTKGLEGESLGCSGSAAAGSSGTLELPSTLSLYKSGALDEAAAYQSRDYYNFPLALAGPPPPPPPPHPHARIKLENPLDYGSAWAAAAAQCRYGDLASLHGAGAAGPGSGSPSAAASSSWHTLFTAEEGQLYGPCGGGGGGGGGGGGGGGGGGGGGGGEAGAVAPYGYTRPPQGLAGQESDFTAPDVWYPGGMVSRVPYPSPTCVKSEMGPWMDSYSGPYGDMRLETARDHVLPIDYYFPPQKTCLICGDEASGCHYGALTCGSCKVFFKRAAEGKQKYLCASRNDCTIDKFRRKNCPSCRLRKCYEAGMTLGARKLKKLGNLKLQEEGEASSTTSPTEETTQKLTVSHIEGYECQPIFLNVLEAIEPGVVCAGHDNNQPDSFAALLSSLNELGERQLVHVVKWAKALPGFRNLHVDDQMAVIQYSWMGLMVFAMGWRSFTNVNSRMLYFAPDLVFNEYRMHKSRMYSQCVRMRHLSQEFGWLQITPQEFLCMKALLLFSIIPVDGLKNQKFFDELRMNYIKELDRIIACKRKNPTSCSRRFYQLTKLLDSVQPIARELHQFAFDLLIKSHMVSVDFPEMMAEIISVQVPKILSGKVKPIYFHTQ
The assay can be described thus: Degradation of AR protein in LNCAP cells (Western blot, 8 h). Conditions: LNCaP FGC cells. The method, then:
After 8 h, the culture medium was discarded, and the cells were washed with PBS. After the cells were washed with PBS, RIPA lysis buffer containing 1% Protease Inhibitor Cocktail was added, and the total protein extract was obtained after lysis and centrifugation, and the protein concentration in the extract was detected by BCA method. Protein electrophoresis was carried out by SDS-PAGE, after which the proteins were transferred to PVDF (Millipore Sigma Catalog No. PSRP010R5) membrane by 100V constant voltage electrotransfer for 60 min, and the PVDF membrane was placed in 1×TBST solution with 5% milk and blocked at room temperature for 1h. […] The primary antibody solution was discarded, and the PVDF membrane was washed three times with 1× TBST for 5 min each. […] The secondary antibody solution was discarded, and the PVDF membrane was washed three times with 1× TBST for 5 min each. Western membrane imaging was performed using a dual-color infrared laser imaging system (Licor catalog number Odyssey CLX). Bands were analyzed in grayscale using the software Image Studio. For each sample, GAPDH protein bands were detected as internal reference. The degradation rates of the AR protein for the compounds and positive control sample were calculated based on the grayscale of the protein bands.

Broadly, the IC50 is the point on the concentration scale where inhibition reaches its midpoint. A higher IC50 goes with weaker potency.

Take `O=C1CCC(N2C(=O)c3cc4c(cc3C2=O)OC2(CCN(C3CCC5(CC3)CCN(c3ccc(C6c7ccc(O)cc7CCC6c6ccccc6)cc3)CC5)CC2)C4)C(=O)N1` (stereo not drawn) [A25]: the results for the IC50 in the assay on MCF-7 cells and with T-47D cells were 23.4 µM and 20 nM, respectively. The “Degradation rate (%) of ERα in T-47D cells” value on ERα [1] (10nM compound) was -1%. The “Degradation rate (%) of ERα in MCF-7 cells” value at ERα [2] came out at 8%.
Taken in the same sequence, the figures for `O=C1CCC(N2C(=O)c3cc4c(cc3C2=O)OC2(CC4)CCN(CC3CCN(c4ccc(C5c6ccc(O)cc6CCC5c5ccccc5)cc4)CC3)CC2)C(=O)N1` (stereo not drawn) [A1] were 49.5 µM, 8 nM, -11% and -17%.
Taken in the same sequence, the figures for `O=C1CCC(N2C(=O)c3cc4c(cc3C2=O)OC2(CC4)CCN(CC3CN(c4ccc(C5c6ccc(O)cc6CCC5c5ccccc5)cc4)C3)CC2)C(=O)N1` (stereo not drawn) [A6] were 48.2 µM, 177 nM, -23% and -17%.
For the compound `O=C1CCC(N2C(=O)c3cc4c(cc3C2=O)OCC2(CCN(CC3CN(c5ccc(C6c7ccc(O)cc7CCC6c6ccccc6)cc5)C3)CC2)C4)C(=O)N1` (stereo not drawn) [O1], the half-inhibitory concentration (IC50) came out at 53.6 µM with MCF-7 cells and 130 nM in the assay with T-47D cells.
On to `C[C@H]1CC2(CCN(c3ccc(C(=O)N4CCC(CN5CCC6(CC5)COc5cc7c(cc56)CN(C5CCC(=O)NC5=O)C7=O)CC4)cc3)CC2)CN1c1ccc(C#N)c(Cl)c1` (stereo partly drawn) [2-384], for which, at AR protein, the “Degradation rates of the AR protein in LNCAP cells, 10 nM (%)” value was determined as 48% and the “Degradation rates of the AR protein in LNCAP cells, 100 nM (%)” value is on record as 63%.
With `O=C1CCC(N2C(=O)c3cc4c(cc3C2=O)OCC2(CCN(C3CCC5(CC3)CCN(c3ccc(C6c7ccc(O)cc7CCC6c6ccccc6)cc3)CC5)CC2)C4)C(=O)N1` (stereo not drawn) [A15], the IC50 with MCF-7 cells was determined as 1.19 µM; in the assay on T-47D cells, 63 nM. On ERα [1] (10nM compound), the “Degradation rate (%) of ERα in T-47D cells” value was determined as 16%. The “Degradation rate (%) of ERα in MCF-7 cells” value at ERα [2] is given as -2%.
Taken in the same sequence, the figures for `O=C1CCC(N2Cc3cc4c(cc3C2=O)OCC2(CCN(C3CCC5(CC3)CCN(c3ccc(C6c7ccc(O)cc7CCC6c6ccccc6)cc3)CC5)CC2)O4)C(=O)N1` (stereo not drawn) [A26] were 3.78 µM, 21 nM, 40% and 13%.
In the case of `O=C1CCC(N2C(=O)c3cc4c(cc3C2=O)OC2(CC4)CCN(C3CC4(C3)CN(c3ccc(C5c6ccc(O)cc6CCC5c5ccccc5)cc3)C4)CC2)C(=O)N1` (stereo not drawn) [O3], the IC50 with MCF-7 cells was 86.8 µM; with T-47D cells, 202 nM.
Turning to `O=C1CCC(N2Cc3cc4c(cc3C2=O)CCC2(CCN(C3CCC5(CC3)CCN(c3ccc(C6c7ccc(O)cc7CCC6c6ccccc6)cc3)CC5)CC2)O4)C(=O)N1` (stereo not drawn) [A21], the results for the IC50 in the assay with MCF-7 cells and in the assay with T-47D cells were 2.52 µM and 19 nM, respectively. For the same compound, the “Degradation rate (%) of ERα in T-47D cells” value on ERα [1] (10nM compound) was -15%. For the same compound, the “Degradation rate (%) of ERα in MCF-7 cells” value at ERα [2] worked out at 4%.
Consider `O=C1CCC(N2Cc3cc4c(cc3C2=O)OCC2(CCN(C3CCC5(CC3)CN(c3ccc(C6c7ccc(O)cc7CCC6c6ccccc6)cc3)C5)CC2)O4)C(=O)N1` (stereo not drawn) [A27], for which the IC50 with MCF-7 cells turned out to be 4.36 µM; in the assay on T-47D cells it was 15 nM. Moreover, the “Degradation rate (%) of ERα in T-47D cells” value on ERα [1] (10nM compound) is listed as -15%. Moreover, at ERα [2], the “Degradation rate (%) of ERα in MCF-7 cells” value is on record as 4%.
Taken in the same sequence, the figures for `O=C1CCC(N2Cc3cc4c(cc3C2=O)OC2(CC4)CN(C3CCC4(CC3)CCN(c3ccc(C5c6ccc(O)cc6CCC5c5ccccc5)cc3)CC4)C2)C(=O)N1` (stereo not drawn) [A30] were 30.2 µM, 11.8 nM, 46% and 23%.
Regarding `O=C1CCC(N2Cc3cc4c(cc3C2=O)CCC2(CCN(CC3CN(c5ccc(C6c7ccc(O)cc7CCC6c6ccccc6)cc5)C3)CC2)O4)C(=O)N1` (stereo not drawn) [M1], the IC50 is 44.1 µM in the assay on MCF-7 cells and 117 nM with T-47D cells.
Take `O=C1CCC(N2Cc3cc4c(cc3C2=O)OC2(CC4)CCN(C3CC4(C3)CN(c3ccc(C5c6ccc(O)cc6CCC5c5ccccc5)cc3)C4)CC2)C(=O)N1` (stereo not drawn) [M5]: the IC50 worked out at 5.66 µM in the assay on MCF-7 cells and 313 nM in the assay with T-47D cells.
`O=C1CCC(N2Cc3cc4c(cc3C2=O)OC2(CC4)CN(C3CC4(CCN(c5ccc(C6c7ccc(O)cc7CCC6c6ccccc6)cc5)CC4)C3)C2)C(=O)N1` (stereo not drawn) [M8]: the IC50 was 51.7 µM in the assay with MCF-7 cells and 22 nM with T-47D cells.
As for `C[C@H]1CC2(CCN(c3ccc(N4CCC(CN5CCC6(CC5)COc5cc7c(cc56)CN(C5CCC(=O)NC5=O)C7=O)CC4)cc3)CC2)CN1c1ccc(C#N)c(Cl)c1` (stereo partly drawn) [2-376], on AR protein, the “Degradation rates of the AR protein in LNCAP cells, 10 nM (%)” value came out at 20% and the “Degradation rates of the AR protein in LNCAP cells, 100 nM (%)” value is 70%.
For `O=C1CCC(N2Cc3cc4c(cc3C2=O)OCC2(CCN(C3CC5(CCN(c6ccc(C7c8ccc(O)cc8CCC7c7ccccc7)cc6)CC5)C3)CC2)O4)C(=O)N1` (stereo not drawn) [M7], the IC50 in the assay with MCF-7 cells was found to be 13.6 µM; in the assay with T-47D cells it was 17 nM. For the same compound, the results for the “Degradation rate (%) of ERα in T-47D cells” value on ERα [1] (1nM compound) and on ERα [1] (10nM compound) were 17% and 56%, respectively.
As for `O=C1CCC(N2Cc3cc4c(cc3C2=O)CCC2(CCN(C3CC5(CCN(c6ccc(C7c8ccc(O)cc8CCC7c7ccccc7)cc6)CC5)C3)CC2)O4)C(=O)N1` (stereo not drawn) [M6], the figures for the IC50 with MCF-7 cells and with T-47D cells were 4.38 µM and 11 nM, respectively. For the same compound, the “Degradation rate (%) of ERα in T-47D cells” value came out at 22% at ERα [1] (1nM compound) and 54% on ERα [1] (10nM compound).
